Results reported in ChEMBL document CHEMBL3862012, “Methylene versus carbonyl bridge in the structure of new tubulin polymerization inhibitors with tricyclic A-rings” (Bioorg Med Chem, 2016).

Key:
Format in all cases: functional
[1] = Cytotoxicity against human SK-MEL-2 cells assessed as growth inhibition at 10 uM after 48 hrs by SRB assay relative to control; conditions: SK-MEL-2, 48 h, read-out: GI
[2] = Cytotoxicity against human M14 cells assessed as growth inhibition after 48 hrs by SRB assay; conditions: M14, 48 h
[3] = Cytotoxicity against human HCT15 cells assessed as growth inhibition after 48 hrs by SRB assay; conditions: HCT-15, 48 h
[4] = Cytotoxicity against human IGROV1 cells assessed as growth inhibition after 48 hrs by SRB assay; conditions: IGROV-1, 48 h
[5] = Cytotoxicity against human Hs 578T cells assessed as growth inhibition at 10 uM after 48 hrs by SRB assay relative to control; conditions: read-out: GI
[6] = Cytotoxicity against human SF268 cells assessed as growth inhibition after 48 hrs by SRB assay; conditions: SF-268, 48 h
[7] = Cytotoxicity against human HOP92 cells assessed as growth inhibition after 48 hrs by SRB assay; conditions: HOP-92, 48 h
[8] = Cytotoxicity against human IGROV1 cells assessed as growth inhibition at 10 uM after 48 hrs by SRB assay relative to control; conditions: IGROV-1, 48 h, read-out: GI
[9] = Cytotoxicity against human SF539 cells assessed as growth inhibition after 48 hrs by SRB assay; conditions: SF-539, 48 h
[10] = Cytotoxicity against human DU145 cells assessed as growth inhibition after 48 hrs by SRB assay; conditions: DU-145, 48 h
[11] = Cytotoxicity against human SKOV3 cells assessed as growth inhibition after 48 hrs by SRB assay; conditions: SK-OV-3, 48 h
[12] = Cytotoxicity against human SK-MEL-2 cells assessed as growth inhibition after 48 hrs by SRB assay; conditions: SK-MEL-2, 48 h
[13] = Cytotoxicity against human SW620 cells assessed as growth inhibition at 10 uM after 48 hrs by SRB assay relative to control; conditions: SW-620, 48 h, read-out: GI
[14] = Cytotoxicity against human MCF7 cells assessed as growth inhibition after 48 hrs by SRB assay; conditions: MCF7, 48 h
[15] = Cytotoxicity against human SF268 cells assessed as growth inhibition at 10 uM after 48 hrs by SRB assay relative to control; conditions: SF-268, 48 h, read-out: GI
[16] = Cytotoxicity against human LOXIMVI cells assessed as growth inhibition at 10 uM after 48 hrs by SRB assay relative to control; conditions: LOX IMVI, read-out: GI
[17] = Cytotoxicity against human COLO205 cells assessed as growth inhibition at 10 uM after 48 hrs by SRB assay relative to control; conditions: COLO 205, 48 h, read-out: GI
[18] = Cytotoxicity against human UACC62 cells assessed as growth inhibition at 10 uM after 48 hrs by SRB assay relative to control; conditions: UACC-62, 48 h, read-out: GI
[19] = Cytotoxicity against human SK-MEL-5 cells assessed as growth inhibition after 48 hrs by SRB assay; conditions: SK-MEL-5, 48 h
[20] = Cytotoxicity against human RPMI8226 cells assessed as growth inhibition at 10 uM after 48 hrs by SRB assay relative to control; conditions: RPMI-8226, 48 h, read-out: GI
[21] = Cytotoxicity against human K562 cells assessed as growth inhibition at 10 uM after 48 hrs by SRB assay relative to control; conditions: K562, 48 h, read-out: GI
[22] = Cytotoxicity against human RXF393 cells assessed as growth inhibition after 48 hrs by SRB assay; conditions: RXF 393, 48 h
[23] = Cytotoxicity against human SW620 cells assessed as growth inhibition after 48 hrs by SRB assay; conditions: SW-620, 48 h
[24] = Cytotoxicity against human SNB75 cells assessed as growth inhibition after 48 hrs by SRB assay; conditions: SNB-75, 48 h
[25] = Cytotoxicity against human MDA-MB-435 cells assessed as growth inhibition after 48 hrs by SRB assay; conditions: MDA-MB-435, 48 h
[26] = Cytotoxicity against human OVCAR4 cells assessed as growth inhibition at 10 uM after 48 hrs by SRB assay relative to control; conditions: OVCAR-4, 48 h, read-out: GI
[27] = Cytotoxicity against human OVCAR3 cells assessed as growth inhibition after 48 hrs by SRB assay; conditions: OVCAR-3, 48 h
[28] = Cytotoxicity against human HCT15 cells assessed as growth inhibition at 10 uM after 48 hrs by SRB assay relative to control; conditions: HCT-15, 48 h, read-out: GI
[29] = Cytotoxicity against human 786-0 cells assessed as growth inhibition after 48 hrs by SRB assay; conditions: 786-0, 48 h
[30] = Cytotoxicity against human Caki1 cells assessed as growth inhibition after 48 hrs by SRB assay; conditions: CAKI-1, 48 h
[31] = Cytotoxicity against human UACC257 cells assessed as growth inhibition at 10 uM after 48 hrs by SRB assay relative to control; conditions: UACC-257, 48 h, read-out: GI
[32] = Cytotoxicity against human COLO205 cells assessed as growth inhibition after 48 hrs by SRB assay; conditions: COLO 205, 48 h
[33] = Cytotoxicity against human OVCAR5 cells assessed as growth inhibition at 10 uM after 48 hrs by SRB assay relative to control; conditions: OVCAR-5, 48 h, read-out: GI
[34] = Cytotoxicity against human SNB19 cells assessed as growth inhibition at 10 uM after 48 hrs by SRB assay relative to control; conditions: SNB-19, 48 h, read-out: GI
[35] = Cytotoxicity against human NCI-H460 cells assessed as growth inhibition after 48 hrs by SRB assay; conditions: NCI-H460, 48 h
[36] = Cytotoxicity against human NCI-H522 cells assessed as growth inhibition at 10 uM after 48 hrs by SRB assay relative to control; conditions: NCI-H522, 48 h, read-out: GI
[37] = Cytotoxicity against human HCT116 cells assessed as growth inhibition after 48 hrs by SRB assay; conditions: HCT-116, 48 h
[38] = Cytotoxicity against human OVCAR8 cells assessed as growth inhibition at 10 uM after 48 hrs by SRB assay relative to control; conditions: OVCAR-8, 48 h, read-out: GI
[39] = Cytotoxicity against human ACHN cells assessed as growth inhibition at 10 uM after 48 hrs by SRB assay relative to control; conditions: read-out: GI
[40] = Cytotoxicity against human HT-29 cells assessed as growth inhibition at 10 uM after 48 hrs by SRB assay relative to control; conditions: HT-29, 48 h, read-out: GI

COc1ccc(CN2c3ccccc3Sc3ccccc32)cc1F
inhibition of growth at 10 µM [1]: 60%
GI50 [2]: 317 nM
GI50 [3]: 437 nM
GI50 [4]: 1070 nM
inhibition of growth at 10 µM [5]: 83%
GI50 [6]: 1430 nM
GI50 [7]: 806 nM
inhibition of growth at 10 µM [8]: 64%
GI50 [9]: 330 nM
GI50 [10]: 438 nM
GI50 [11]: 475 nM
GI50 [12]: 405 nM
inhibition of growth at 10 µM [13]: 76%
GI50 [14]: 365 nM
inhibition of growth at 10 µM [15]: 61%
inhibition of growth at 10 µM [16]: 60%
inhibition of growth at 10 µM [17]: 100%
inhibition of growth at 10 µM [18]: 72%
GI50 [19]: 488 nM
inhibition of growth at 10 µM [20]: 79%
inhibition of growth at 10 µM [21]: 89%
GI50 [22]: 304 nM
GI50 [23]: 384 nM
GI50 [24]: 204 nM
GI50 [25]: 189 nM
inhibition of growth at 10 µM [26]: 51%
GI50 [27]: 264 nM
inhibition of growth at 10 µM [28]: 84%
GI50 [29]: 579 nM
GI50 [30]: 386 nM
inhibition of growth at 10 µM [31]: 45%
GI50 [32]: 299 nM
inhibition of growth at 10 µM [33]: 57%
inhibition of growth at 10 µM [34]: 65%
GI50 [35]: 389 nM
inhibition of growth at 10 µM [36]: 95%
GI50 [37]: 377 nM
inhibition of growth at 10 µM [38]: 76%
inhibition of growth at 10 µM [39]: 58%
inhibition of growth at 10 µM [40]: 100%
